Measured values as given in patent US20180193321A1, “INDOLO[…]” (The Rockefeller University, priority 2015, published 2018).

Columns and labels:
[1] = Cytotoxicity / antiproliferative activity, crystal violet viability assay; assay type: cell-based, human; conditions: human, HCT-116 colon carcinoma cells; HCT-116 cells, 3 days incubation, crystal violet absorbance at 590 nm relative to DMSO control, triplicate; read-out: IC50 (cytotoxicity against HCT-116)
Procedure: (§1) Because known indolotryptolines are potent human cell line toxins, lazarimide C, novel compounds 6 and 7, as well as cladoniamide A as a control, were tested for cytotoxicity against HCT-116 human colon carcinoma cancer cells.
(§2) The compounds were tested for antiproliferative activity in triplicate using the colon carcinoma cell line HCT-116 (ATCC; CCL-247) [See Brattain et al., “Heterogeneity of malignant cells from a human colonic carcinoma.” Cancer Res. 41(5):1751-1756(1981), incorporated herein by reference in its entirety]. For assays, frozen HCT-116 cells were thawed and grown in McCoy's 5A Modified Medium (Gibco) supplemented with 10% (v/v) FBS. Cells were sub-cultured once, and then cells in log phase growth were harvested by trypsinization. Trypsinized cells were seeded into 96-well plates (1,000 cells/well) and incubated overnight at 37° C. in the presence of 5% CO2. Compounds 6, 7, lazarimide C and cladoniamide (10 mg/mL in DMSO) were sequentially diluted in culture media (2-fold dilution starting at 50 μg/mL) across a 96-well plate and 100 μL was transferred to the appropriate well in an assay plate. The plates were incubated at 37° C. for 3 days and then evaluated for viability using a crystal violet-based colorimetric assay [See Zivadinovic et al., “Membrane estrogen receptor-alpha levels in MCF-7 breast cancer cells predict cAMP and proliferation responses.” Breast Cancer Res. 7(1):R101-112 (2005)]. Cell viability was recorded based on the absorbance at 590 nm in compound treated well relative to DMSO control wells.

[2] = system: HCT-116 human colon carcinoma cancer cells; assay: as above; assay type: cell-based; conditions: HCT-116 cells, 3 days incubation, crystal violet absorbance at 590 nm relative to DMSO control, triplicate; read-out: IC50 (cytotoxicity against HCT-116)
Procedure: as §1, §2

| Structure (SMILES) | IC50 at 3 days [1] [nM] | IC50 [2] [nM] |
| --- | --- | --- |
| COc1c2n(c3cc(Cl)ccc13)[C@]1(O)C(=O)N(C)C(=O)[C@]1(O)c1c-2[nH]c2ccc(Cl)cc12 [Compound 6, lazarimide B] | 11.6 | – |
| COc1c2n(c3cc(Cl)c(O)cc13)[C@]1(O)C(=O)N(C)C(=O)[C@]1(O)c1c-2[nH]c2ccc(Cl)cc12 [Compound 7, lazarimide A] | 8.4 | – |
| COc1c2n(c3ccccc13)[C@]1(O)C(=O)N(C)C(=O)[C@]1(O)c1c-2[nH]c2ccc(Cl)cc12 [cladoniamide A, reference compound] | – | 40.4 |
| CN1C(=O)[C@@]2(O)c3c([nH]c4cc(Cl)ccc34)-c3[nH]c4ccc(Cl)cc4c3[C@@]2(O)C1=O [lazarimide C] | 25800 | – |
